Reference: US12404289B2 (Gilead Sciences, Inc., priority 2020, dated 2025)
Where two headings read alike, the source gives them in different places.

Assays:
Type in all cases: cell-based
[1] = tested on: Respiratory syncytial virus (RSV) strain A2; experiment: RSV antiviral assay (HEp-2, 96 well); conditions: human respiratory syncytial virus
[2] = tested on: SARS-CoV-2; experiment: SARS-CoV-2 antiviral assay (A549-hACE2, Nano luciferase); conditions: Severe acute respiratory syndrome coronavirus 2, 48 h, A549-hACE2 cells, SARS-CoV2-Nano, MOI 0.025, 48 h
[3] = CC50 assay (cytopathology in HEp-2 cells); conditions: human
Protocol: The cytopathology of compounds in HEp-2 cells is determined in the following manner. HEp-2 cells are suspended in DMEM+GlutaMAX (supplemented with 10% FBS and 1% Penicillin/Streptomycin) and seeded into 96 well plates (3×10^3/well). After a 4-hour incubation at 37° C.+5% CO2, three-fold serial dilutions of compounds are added to each well using an HP D300e digital dispenser. The cells are then incubated for 4 days at 37° C. and 5% CO2. The final volume in each well is 200 μL. Untreated wells are included as controls for 100% cell viability, while compounds treated with 5 uM puromycin are included as controls for 0% viability. Following the incubation, 100 μL of culture supernatant is removed from each well and replaced with 100 μL of CellTiter-Glo reagent (Promega, Madison, WI, Cat #G7573). The plates are then rocked for 2 minutes followed by a 10-minute incubation at 25° C. Compound-induced cytopathic effect is then assessed by measuring luminescence signal using and Envision plate reader. Values are normalized to the untreated DMSO and puromycin-treated controls (as 100% and 0% viability, respectively) and data is fit using non-linear regression analysis using XLfit4. The CC50 value for each compound is then determined as the concentration reducing cell viability by 50%.

[4] = tested on: Recombinant respiratory syncytial virus expressing the firefly luciferase protein (RSV-Fluc); experiment: microbe, parasite or virus in culture; conditions: human respiratory syncytial virus, NHBE, 72 h, read-out: EC50 RSVFluc NHBE 96, NHBE cells, RSV-Fluc, MOI of 0.1, three days, 96 well; Table 4
[5] = HEp-2, 96 h, read-out: EC50-RSV-HEP-2-96, HEp-2 cells, RSV A2, MOI=4, 4 days, 96 well, CellTiter-Glo, Table 1
[6] = Table 4, read-out: EC50 SARS CoV2
[7] = HEp-2 cells, 4 days, CellTiter-Glo, Table 1, read-out: RSV CC50
[8] = Table 1, read-out: SARS-CoV-2 EC50

For `CCC(CC)COC(=O)[C@H](C)N[P@](=O)(OC[C@H]1O[C@@](C#N)(c2ccc3c(N)ncnn23)[C@H](O)[C@@H]1O)Oc1ccccc1`, the EC50 ([1]; 96 h, HEp-2 cells, RSV A2, MOI=4, 4 days, 96 well, Table 2, read-out: EC50-RSV-HEP-2-96) was 0.0149 µM, the EC50 ([2]; Table 2, read-out: SARS-CoV-2 EC50) was 0.11 µM and the CC50 at 4 days [3] was 6.08 µM.
In the case of `CCC(CC)COC(=O)[C@H](C)N[P@](=O)(OC[C@H]1O[C@@](C#N)(c2ccc3c(N)ncnn23)[C@H](OC(=O)C(C)C)[C@@H]1OC(=O)C(C)C)Oc1ccccc1` [Example 1, (2R,3R,4R,5R)-2-(4-aminopyrrolo[2,1-f][1,2,4]triazin-7-yl)-2-cyano-5-((((S)—(((S)-1-(2-ethylbutoxy)-1-oxopropan-2-yl)amino)(phenoxy)phosphoryl)oxy)methyl) tetrahydrofuran-3,4-diyl bis(2-methylpropanoate)], the EC50 [1, 5] is reported as 0.122 µM, the EC50 [4] is reported as 0.00656 µM and the EC50 [2, 6] is reported as 0.338 µM. For the same compound, the CC50 at 4 days [3, 7] was 5.49 µM.
`CCC(CC)COC(=O)[C@H](C)N[P@](=O)(OC[C@H]1O[C@@](C#N)(c2ccc3c(N)ncnn23)[C@H](OC(C)=O)[C@@H]1OC(C)=O)Oc1ccccc1` [Example 2, (2R,3R,4R,5R)-2-(4-aminopyrrolo[2,1-f][1,2,4]triazin-7-yl)-2-cyano-5-((((S)—(((S)-1-(2-ethylbutoxy)-1-oxopropan-2-yl)amino)(phenoxy)phosphoryl)oxy)methyl) tetrahydrofuran-3,4-diyl Diacetate] showed an EC50 [1, 5] of 0.0844 µM, an EC50 [4] of 0.00453 µM and an EC50 [2, 6] of 0.102 µM. It also gave a CC50 at 4 days [3, 7] of 8.41 µM.
For `CC(C)OC(=O)[C@H](C)N[P@](=O)(OC[C@H]1O[C@@](C#N)(c2ccc3c(N)ncnn23)[C@H](OC(=O)C(C)C)[C@@H]1OC(=O)C(C)C)Oc1ccccc1` [Example 7, (2R,3R,4R,5R)-2-(4-aminopyrrolo[2,1-f][1,2,4]triazin-7-yl)-2-cyano-5-((((S)—(((S)-1-isopropoxy-1-oxopropan-2-yl)amino)(phenoxy)phosphoryl)oxy)methyl) tetrahydrofuran-3,4-diyl bis(2-methylpropanoate)], the EC50 [1, 5] was 0.0779 µM, the EC50 [2, 8] was 0.241 µM and the EC50 [2, 6] was 0.372 µM. The CC50 at 4 days [3, 7] was 12.6 µM.
For `CCOC(=O)[C@H](C)NP(=O)(OC[C@H]1O[C@@](C#N)(c2ccc3c(N)ncnn23)[C@H](OC(=O)CC)[C@@H]1OC(=O)CC)Oc1ccccc1` (stereo partly drawn) [Example 11, (2R,3R,4R,5R)-2-(4-aminopyrrolo[2,1-f][1,2,4]triazin-7-yl)-2-cyano-5-((((((S)-1-ethoxy-1-oxopropan-2-yl)amino)(phenoxy)phosphoryl)oxy)methyl)tetrahydrofuran-3,4-diyl Dipropionate], the EC50 [1, 5] was 0.0672 µM, the EC50 [2, 8] was 0.0768 µM and the EC50 [2, 6] was 0.208 µM. For the same compound, the CC50 at 4 days [3, 7] was 12.8 µM.
Compound `CCOC(=O)[C@H](C)NP(=O)(OC[C@H]1O[C@@](C#N)(c2ccc3c(N)ncnn23)[C@H](OC(C)=O)[C@@H]1OC(C)=O)Oc1ccccc1` (stereo partly drawn) [Example 12, (2R,3R,4R,5R)-2-(4-aminopyrrolo[2,1-f][1,2,4]triazin-7-yl)-2-cyano-5-((((((S)-1-ethoxy-1-oxopropan-2-yl)amino)(phenoxy)phosphoryl)oxy)methyl)tetrahydrofuran-3,4-diyl Diacetate] has an EC50 [1, 5] of 0.166 µM, an EC50 [2, 6] of 0.139 µM and a CC50 at 4 days [3, 7] of 30.9 µM.
For `CCC(CC)COC(=O)[C@H](C)NP(=O)(OC[C@H]1O[C@@](C#N)(c2ccc3c(N)ncnn23)[C@H](OC(=O)C(C)C)[C@@H]1OC(=O)C(C)C)Oc1ccc(C(C)(C)C)cc1` (some centres unmarked) [Example 14], the EC50 [1, 5] was 0.029 µM, the EC50 [4] was 0.00372 µM and the EC50 [2, 6] was 0.186 µM. The CC50 at 4 days [3, 7] was 2.73 µM.
`COC(=O)[C@H](C)NP(=O)(OC[C@H]1O[C@@](C#N)(c2ccc3c(N)ncnn23)[C@H](O)[C@@H]1O)Oc1ccc(C(C)(C)C)cc1` (stereo partly drawn) [Example 15, Methyl ((((2R,3S,4R,5R)-5-(4-aminopyrrolo[2,1-f][1,2,4]triazin-7-yl)-5-cyano-3,4-dihydroxytetrahydrofuran-2-yl)methoxy)(4-(tert-butyl)phenoxy)phosphoryl)-L-alaninate] gave an EC50 [1, 5] of 0.185 µM, an EC50 [2, 6] of 0.777 µM and a CC50 at 4 days [3, 7] of 22.9 µM.
With `COC(=O)[C@H](C)NP(=O)(OC[C@H]1O[C@@](C#N)(c2ccc3c(N)ncnn23)[C@H](OC(=O)C(C)C)[C@@H]1OC(=O)C(C)C)Oc1ccc(C(C)(C)C)cc1` (stereo partly drawn) [Example 16, (2R,3R,4R,5R)-2-(4-aminopyrrolo[2,1-f][1,2,4]triazin-7-yl)-5-((((4-(tert-butyl)phenoxy)(((S)-1-methoxy-1-oxopropan-2-yl)amino)phosphoryl)oxy)methyl)-2-cyanotetrahydrofuran-3,4-diyl bis(2-methylpropanoate)] the EC50 [1, 5] was 0.0093 µM, the EC50 [2, 8] was 0.0838 µM and the EC50 [2, 6] was 0.199 µM. The CC50 at 4 days [3, 7] was 2.84 µM.
With `CCOC(=O)[C@H](C)NP(=O)(OC[C@H]1O[C@@](C#N)(c2ccc3c(N)ncnn23)[C@H](O)[C@@H]1O)Oc1ccc(C(C)(C)C)cc1` (stereo partly drawn) [Example 17, Ethyl ((((2R,3S,4R,5R)-5-(4-aminopyrrolo[2,1-f][1,2,4]triazin-7-yl)-5-cyano-3,4-dihydroxytetrahydrofuran-2-yl)methoxy)(4-(tert-butyl)phenoxy)phosphoryl)-L-alaninate] the EC50 [1, 5] was 0.164 µM, the EC50 [2, 6] was 0.85 µM and the CC50 at 4 days [3, 7] was 20.8 µM.
Compound `CCC(CC)COC(=O)[C@H](C)NP(=O)(OC[C@H]1O[C@@](C#N)(c2ccc3c(N)ncnn23)[C@H](OC(=O)C(C)C)[C@@H]1OC(=O)C(C)C)Oc1c(C)cccc1C` (stereo partly drawn) [Example 20, (2R,3R,4R,5R)-2-(4-aminopyrrolo[2,1-f][1,2,4]triazin-7-yl)-2-cyano-5-((((2,6-dimethylphenoxy)(((S)-1-(2-ethylbutoxy)-1-oxopropan-2-yl)amino)phosphoryl)oxy)methyl)tetrahydrofuran-3,4-diyl bis(2-methylpropanoate)] has an EC50 [1, 5] of 0.444 µM and a CC50 at 4 days [3, 7] of 5.18 µM.
In the case of `CCOCCOCCOC(=O)[C@H](C)NP(=O)(OC[C@H]1O[C@@](C#N)(c2ccc3c(N)ncnn23)[C@H](O)[C@@H]1O)Oc1ccccc1` (stereo partly drawn) [Example 22, 2-(2-Ethoxyethoxy)ethyl ((((2R,3S,4R,5R)-5-(4-aminopyrrolo[2,1-f][1,2,4]triazin-7-yl)-5-cyano-3,4-dihydroxytetrahydrofuran-2-yl)methoxy)(phenoxy)phosphoryl)-L-alaninate], the EC50 [1, 5] is reported as > 4.71 µM and the CC50 at 4 days [3, 7] is reported as > 50 µM.
Work on `CCOCCOCCOC(=O)[C@H](C)NP(=O)(OC[C@H]1O[C@@](C#N)(c2ccc3c(N)ncnn23)[C@H](OC(=O)C(C)C)[C@@H]1OC(=O)C(C)C)Oc1ccccc1` (stereo partly drawn) [Example 23, (2R,3R,4R,5R)-2-(4-Aminopyrrolo[2,1-f][1,2,4]triazin-7-yl)-2-cyano-5-((((((S)-1-(2-(2-ethoxyethoxy)ethoxy)-1-oxopropan-2-yl)amino)(phenoxy)phosphoryl)oxy)methyl)tetrahydrofuran-3,4-diyl bis(2-methylpropanoate)] yielded an EC50 [1, 5] of 0.0759 µM and a CC50 at 4 days [3, 7] of 5.64 µM.
With `COC(C)(C)COC(=O)[C@H](C)NP(=O)(OC[C@H]1O[C@@](C#N)(c2ccc3c(N)ncnn23)[C@H](O)[C@@H]1O)Oc1ccccc1` (stereo partly drawn) [Example 24, 2-Methoxy-2-methylpropyl ((((2R,3S,4R,5R)-5-(4-aminopyrrolo[2,1-f][1,2,4]triazin-7-yl)-5-cyano-3,4-dihydroxytetrahydrofuran-2-yl)methoxy)(phenoxy)phosphoryl)-L-alaninate] the EC50 [1, 5] was 1.47 µM and the CC50 at 4 days [3, 7] was > 50 µM.
For `COC(C)(C)COC(=O)[C@H](C)NP(=O)(OC[C@H]1O[C@@](C#N)(c2ccc3c(N)ncnn23)[C@H](OC(=O)C(C)C)[C@@H]1OC(=O)C(C)C)Oc1ccccc1` (stereo partly drawn) [Example 25, (2R,3R,4R,5R)-2-(4-aminopyrrolo[2,1-f][1,2,4]triazin-7-yl)-2-cyano-5-((((((S)-1-(2-methoxy-2-methylpropoxy)-1-oxopropan-2-yl)amino)(phenoxy)phosphoryl)oxy)methyl)tetrahydrofuran-3,4-diyl bis(2-methylpropanoate)], the EC50 [1, 5] was 0.0111 µM, the EC50 [2, 8] was 0.122 µM and the EC50 [2, 6] was 0.35 µM. The CC50 at 4 days [3, 7] was 4.78 µM.
`CCC(CC)COC(=O)[C@H](C)NP(=O)(OC[C@H]1O[C@@](C#N)(c2ccc3c(N)ncnn23)[C@H](OC(=O)C(C)C)[C@@H]1OC(=O)C(C)C)Oc1cc(C)ccc1C(C)C` (stereo partly drawn) [Example 27, (2R,3R,4R,5R)-2-(4-Aminopyrrolo[2,1-f][1,2,4]triazin-7-yl)-2-cyano-5-((((((S)-1-(2-ethylbutoxy)-1-oxopropan-2-yl)amino)(2-isopropyl-5-methylphenoxy)phosphoryl)oxy)methyl)tetrahydrofuran-3,4-diyl bis(2-methylpropanoate)] showed an EC50 [1, 5] of 0.958 µM and a CC50 at 4 days [3, 7] of 5.86 µM.
